Experimental data published in patent publication US7713994B2 (Wyeth LLC, priority 2005, dated 2010).
Where two headings read alike, the source gives them in different places.

What was measured:
HCT-116 = test: Cytotoxicity assay (SRB), HCT-116; assay type: cell-based; settings: Homo sapiens, HCT-116, 72 h, HCT116 cells, SRB, read-out: In Vitro Cellular Activity IC50 HCT116
Procedure, shortened: (§1)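 Percentage survival is derived from SRB absorbance (540 nm) versus untreated cells. Exposures were 3 days, except 6 days for BT474, at 37 °C and 7% CO2.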

BT474 = test: Cytotoxicity assay (SRB), BT474; assay type: cell-based
Procedure, shortened: as §1

MCF-7 = test: Cytotoxicity assay (SRB), MCF-7; assay type: cell-based; settings: Homo sapiens, MCF7, 72 h, MCF-7 cells, SRB, read-out: In Vitro Cellular Activity IC50 MCF-7
Procedure, shortened: as §1

LoVo = test: Cytotoxicity assay (SRB), LoVo; assay type: cell-based; settings: Homo sapiens, LoVo, 72 h, LoVo cells, SRB, read-out: In Vitro Cellular Activity IC50 LOVO
Procedure, shortened: as §1

cyclin E/CDK2 enzyme = biological target: T1, cyclin E/CDK2 enzyme (Homo sapiens, UniProt P24941); test: CDK2 ELISA kinase assay (phospho-Rb ser 795 detection); assay type: biochemical
T1 construct: made in house; host or cells: Sf9 insect cells, recombinant baculovirus
Procedure, shortened: (§2)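 Wells were coated overnight with GST-Rb C-terminal fragment, then blocked. Compound (10 ug/ml final) and cyclin/CDK enzyme from baculovirus-infected Sf9 cells with 200 μM ATP reacted 1 h at 30° C. Ser795 phosphorylation was detected by ELISA at 450 nm.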

cyclin D1/cdk 4 enzyme = biological target: T2, cyclin D1/cdk 4 enzyme (Homo sapiens, UniProt P11802); test: CDK4 ELISA kinase assay (phospho-Rb ser 795 detection); assay type: biochemical
T2 construct: made in house; host or cells: Sf9 insect cells, recombinant baculovirus
Procedure, shortened: as §2

cyclin B/CDK1 enzyme = biological target: T3, cyclin B/CDK1 enzyme (Homo sapiens, UniProt P06493); test: CDK1 ELISA kinase assay (phospho-Rb ser 795 detection); assay type: biochemical
T3 construct: purchased New England BioLabs; host or cells: Sf9 insect cells, recombinant baculovirus
Procedure, shortened: as §2

[1] = Homo sapiens, BT-474, 144 h, BT474 cells, SRB, 6 days; read-out: In Vitro Cellular Activity IC50 BT474
[2] = In Vitro Enzyme Assays, read-out: CDK2 IC50
[3] = In Vitro Enzyme Assays, 200 μM ATP, read-out: CDK4 IC50
[4] = In Vitro Enzyme Assays, read-out: CDK1 IC50
[5] = Homo sapiens, BT-474, 144 h, BT474 cells, 6 days, SRB; read-out: In Vitro Cellular Activity IC50 BT474
[6] = In Vitro Enzyme Assay, cyclin E/CDK2, read-out: CDK2 IC50
[7] = In Vitro Enzyme Assay, cyclin D1/cdk 4, read-out: CDK4 IC50
[8] = In Vitro Enzyme Assay, cyclin B/CDK1, read-out: CDK1 IC50

T2 sequence (P11802 whole entry, species assumed): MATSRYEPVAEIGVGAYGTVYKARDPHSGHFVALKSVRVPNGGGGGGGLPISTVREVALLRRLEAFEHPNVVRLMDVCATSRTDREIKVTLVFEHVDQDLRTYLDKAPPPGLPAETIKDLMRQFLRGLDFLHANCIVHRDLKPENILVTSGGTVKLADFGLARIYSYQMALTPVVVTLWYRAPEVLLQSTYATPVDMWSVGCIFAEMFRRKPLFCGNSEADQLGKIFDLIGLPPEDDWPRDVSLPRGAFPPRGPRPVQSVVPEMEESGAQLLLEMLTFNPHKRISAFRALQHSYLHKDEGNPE
T2 sequence (P24385 whole entry partner, species assumed): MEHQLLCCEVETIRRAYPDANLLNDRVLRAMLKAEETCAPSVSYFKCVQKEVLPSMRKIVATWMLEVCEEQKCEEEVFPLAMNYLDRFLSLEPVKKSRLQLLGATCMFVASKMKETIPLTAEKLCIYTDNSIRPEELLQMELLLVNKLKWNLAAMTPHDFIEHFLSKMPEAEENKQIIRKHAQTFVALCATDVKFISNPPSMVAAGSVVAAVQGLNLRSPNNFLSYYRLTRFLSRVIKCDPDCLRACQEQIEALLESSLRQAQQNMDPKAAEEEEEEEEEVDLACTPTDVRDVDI
T3 sequence (P06493 whole entry): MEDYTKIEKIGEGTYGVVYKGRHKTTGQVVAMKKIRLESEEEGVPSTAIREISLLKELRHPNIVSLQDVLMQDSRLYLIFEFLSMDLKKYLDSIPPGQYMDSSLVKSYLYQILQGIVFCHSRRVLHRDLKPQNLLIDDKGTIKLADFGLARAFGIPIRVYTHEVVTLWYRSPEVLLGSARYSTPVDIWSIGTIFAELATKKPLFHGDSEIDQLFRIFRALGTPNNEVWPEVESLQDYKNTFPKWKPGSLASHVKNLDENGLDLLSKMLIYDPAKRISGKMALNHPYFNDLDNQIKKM
T3 sequence (P14635 whole entry partner): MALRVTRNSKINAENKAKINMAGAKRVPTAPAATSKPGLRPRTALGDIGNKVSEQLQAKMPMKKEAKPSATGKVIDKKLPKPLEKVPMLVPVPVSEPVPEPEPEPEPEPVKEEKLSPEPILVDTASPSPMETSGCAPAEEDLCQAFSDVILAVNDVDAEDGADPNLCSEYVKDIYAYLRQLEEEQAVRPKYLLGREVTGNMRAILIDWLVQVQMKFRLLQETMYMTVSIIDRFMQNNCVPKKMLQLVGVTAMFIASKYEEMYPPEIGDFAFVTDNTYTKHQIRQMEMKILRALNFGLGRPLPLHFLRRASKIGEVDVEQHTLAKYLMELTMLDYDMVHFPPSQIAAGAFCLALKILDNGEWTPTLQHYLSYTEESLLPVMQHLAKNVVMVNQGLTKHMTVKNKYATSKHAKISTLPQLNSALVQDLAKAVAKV

Row | Structure (SMILES) | IC50 (HCT-116; three days) [nM] | IC50 (BT474; [1]) [nM] | IC50 (MCF-7; three days) [nM] | IC50 (LoVo; three days) [nM] | IC50 (cyclin E/CDK2 enzyme; [2]) [nM] | IC50 (cyclin D1/cdk 4 enzyme; [3]) [nM] | IC50 (cyclin B/CDK1 enzyme; [4]) [nM] | melting point | IC50 (HCT-116; 3 days) [nM] | IC50 (BT474; [5]) [nM] | IC50 (MCF-7; 3 days) [nM] | IC50 (LoVo; 3 days) [nM] | IC50 (cyclin E/CDK2 enzyme; [6]) [nM] | IC50 (cyclin D1/cdk 4 enzyme; [7]) [nM] | IC50 (cyclin B/CDK1 enzyme; [8]) [nM]
1 | Cc1cc(N/C=C2\C(=O)NC(=O)c3ccc(-c4ccsc4)cc32)cnc1N1C[C@@H](C)N[C@@H](C)C1 [Example 356, (4Z)-4-[({6-[(3R,5S)-3,5-Dimethylpiperazin-1-yl]-5-methylpyridin-3-yl}amino)methylene]-6-thien-3-ylisoquinoline-1,3(2H,4H)-dione] | 1600 | 3000 | 2700 | 2800 | > 50000 | 390 | > 50000 | 219 to 220 °C | – | – | – | – | – | – | –
2 | O=C1NC(=O)c2ccc(Br)cc2/C1=C/NCc1ccc(OCC2CC2)c(O)c1 [Example 219, (4Z)-6-Bromo-4-({[4-(cyclopropylmethoxy)-3-′hydroxybenzyl]amino}methylene)isoquinoline-1,3(2H,4H)-dione] | 2800 | 1900 | 32000 | 6900 | > 50000 | 270 | > 50000 | 210 to 211 °C | – | – | – | – | – | – | –
3 | CN1CCN(c2ccc(N/C=C3\C(=O)NC(=O)c4ccc(C#Cc5ccccc5)cc43)cc2)CC1 [Example 171, (4Z)-4-({[4-(4-Methylpiperazin-1-yl)phenyl]amino}methylene)-6-(phenylethynyl)-isoquinoline-1,3(2H,4H)-dione] | 1200 | 5100 | 3000 | 9700 | > 50000 | 2300 | 33200 | 169 to 170 °C | – | – | – | – | – | – | –
4 | O=C1NC(=O)c2ccc(-c3ccc(F)cc3)cc2/C1=C/Nc1ccc(CN2CCC(CCO)CC2)cc1 [Example 482, (4Z)-6-(4-Fluorophenyl)-4-{[(4-{[4-(2-hydroxyethyl)piperidin-1-yl]methyl}phenyl)amino]methylene}isoquinoline-1,3(2H,4H)-dione] | – | – | – | – | – | – | – | 202 to 203 °C | 2500 | 1300 | 840 | 2700 | > 50000 | 120 | > 50000
5 | C[C@@H]1CN(c2ccc(N/C=C3\C(=O)NC(=O)c4ccc(-c5ccsc5)cc43)cc2)C[C@H](C)N1C(=O)CN(C)C [Example 380, (4Z)-4-[({4-[(3R,5S)-4-(N,N-Dimethylglycyl)-3,5-dimethylpiperazin-1-yl]phenyl}amino)methylene]-6-thien-3-ylisoquinoline-1,3(2H,4H)-dione] | 500 | 9100 | 3400 | 8200 | > 50000 | 100 | 42500 | 198 to 199 °C | – | – | – | – | – | – | –
6 | COC[C@H]1CCCN1Cc1ccc(N/C=C2\C(=O)NC(=O)c3ccc(-c4ccoc4)cc32)cc1 [Example 330, (4Z)-6-(3-Furyl)-4-{[(4-{[(2R)-2-(methoxymethyl)pyrrolidin-1-yl]methyl}phenyl)amino]methylene}isoquinoline-1,3(2H,4H)-dione] | 2100 | 1000 | 690 | 2300 | > 50000 | 200 | > 50000 | 130 to 131 °C | – | – | – | – | – | – | –
7 | COC[C@@H]1CCCN1Cc1ccc(N/C=C2\C(=O)NC(=O)c3ccc(-c4ccco4)cc32)cc1 [Example 467, (4Z)-6-(2-Furyl)-4-{[(4-{[(2S)-2-(methoxymethyl)pyrrolidin-1-yl]methyl}phenyl)amino]methylene}isoquinoline-1,3(2H,4H)-dione] | – | – | – | – | – | – | – | 159 to 160 °C | 2300 | 3600 | 1900 | 2400 | > 50000 | 210 | > 50000
8 | O=C1NC(=O)c2ccc(-c3ccsc3)cc2/C1=C/Nc1ccc(N2CCN3CCC[C@H]3C2)c(F)c1 [Example 382, (4Z)-4-[({3-Fluoro-4-[(8aS)-hexahydropyrrolo[1,2-a]pyrazin-2(1H)-yl]phenyl}amino)-methylene]-6-thien-3-ylisoquinoline-1,3(2H,4H)-dione] | 1200 | 2700 | 2700 | 3700 | > 50000 | 290 | > 50000 | 208 to 209 °C | – | – | – | – | – | – | –
9 | O=C1NC(=O)c2ccc(I)cc2/C1=C/NCc1ccc(Cl)c(O)c1 [Example 165, (4Z)-4-{[(4-Chloro-3-hydroxybenzyl)amino]methylene}-6-iodoisoquinoline-′1,3(2H,4H)-dione] | 23000 | > 50000 | > 50000 | > 50000 | 18900 | 200 | > 50000 | 324 to 325 °C | – | – | – | – | – | – | –
10 | COc1cc(CN/C=C2\C(=O)NC(=O)c3ccc(-c4ccc(Oc5ccccc5)cc4)cc32)cc(O)c1OC [Example 100, (4Z)-6-(4-Phenoxyphenyl)-4-{[(3-hydroxy-4,5-dimethoxybenzyl)amino]methylene}isoquinoline-1,3(2H,4H)-dione] | 13600 | 8800 | 11000 | 27800 | > 50000 | 340 | > 50000 | 240 to 241 °C | – | – | – | – | – | – | –
11 | O=C1NC(=O)c2ccc(-c3ccoc3)cc2C1=NNc1ccc(CN2CCCCC2)cc1 [Example 156, 6-Furan-3-yl-4-[(4-piperidin-1-ylmethyl-phenyl)-hydrazono]-4H-isoquinoline-1,3-dione] | 2500 | 2600 | 1500 | 6400 | > 50000 | 40 | > 50000 | 223 to 225 °C (dec.) | – | – | – | – | – | – | –
12 | COc1cc(CN/C=C2\C(=O)NC(=O)c3ccc(I)cc32)cc(O)c1OC [Example 89, (4Z)-6-Iodo-4-{[(3-hydroxy-4,5-dimethoxybenzyl)amino)methylene}isoquinoline-1,3(2H,4H)-dione] | 3700 | 5900 | 20000 | 7800 | 3300 | 2 | > 50000 | 265 to 266 °C | – | – | – | – | – | – | –
13 | C[C@@H]1CN(c2ccc(N/C=C3\C(=O)NC(=O)c4ccc(I)cc43)cc2F)C[C@H](C)N1 [Example 319, (4Z)-4-[({4-[(3R,5S)-3,5-Dimethylpiperazin-1-yl]-3-fluorophenyl}amino)methylene]-6-iodoisoquinoline-1,3(2H,4H)-dione] | 1500 | 3100 | 2600 | 2100 | > 50000 | 1400 | > 50000 | 173 to 174 °C | – | – | – | – | – | – | –
14 | C[C@@H]1CN(c2ccc(N/C=C3\C(=O)NC(=O)c4ccc(-c5ccoc5)cc43)cc2F)C[C@H](C)N1 [Example 324, (4Z)-4-[({4-[(3R,5S)-3,5-Dimethylpiperazin-1-yl]-3-fluorophenyl}amino)methylene]-6-(3-furyl)isoquinoline-1,3(2H,4H)-dione] | 960 | 740 | 830 | 3300 | > 50000 | 170 | > 50000 | 222 to 223 °C | – | – | – | – | – | – | –
15 | O=C1NC(=O)c2ccc(Br)cc2/C1=C/c1cc(Br)c(O)c(Br)c1 [Example 94, (4Z)-6-Bromo-4-(3,5-dibromo-4-hydroxybenzylidene)isoquinoline-1,3(2H,4H)-dione] | 3400 | 2000 | 2300 | 6400 | > 50000 | 9400 | > 50000 | 167 to 168 °C | – | – | – | – | – | – | –
16 | CC(=O)Nc1ccc(CN/C=C2\C(=O)NC(=O)c3ccc(Br)cc32)cc1OC(C)=O [Example 141, 2-(Acetylamino)-5-({[(Z)-(6-bromo-1,3-dioxo-2,3-dihydroisoquinolin-4(1H)-′ylidene)methyl]amino}methyl)phenyl acetate] | 840 | 560 | 16000 | 1300 | > 50000 | 190 | > 50000 | 264 to 265 °C | – | – | – | – | – | – | –
